Converted amounts (≈) assume the structure as drawn. Like-named read-outs stand apart in the source and are kept apart here.
What was measured:
[1] = test system: sarcoma 180 cells; test: Antitumor activity, sarcoma 180, drug given 4 days before inoculation (Test Examples 1 and 7); assay type: in vivo, ICR mice; conditions: for Number of surviving animals/Number of animals tested: 47th day, conditions of Test Example 1; for life span prolonging ratio (T/C): ICR mice, 1 mg/mouse, 4 days before i.p. inoculation of 1×10^5 sarcoma 180 cells
Protocol: Four days later, 1×10^5 sarcoma 180 cells were inoculated intraperitoneally into each mouse. […] The compounds of Examples 1, 4 and 6 were tested under the same conditions as Test Example 1. The value of the number of surviving animals represents the number of animals which survived on the 47th day.

[2] = test system: sarcoma 180 cells; test: Antitumor activity, sarcoma 180, drug given after inoculation (Test Examples 2, 3 and 8); assay type: in vivo, ICR mice; conditions: for Number of surviving animals/Number of animals tested: 47th day, conditions of Test Example 2; for life span prolonging ratio (T/C): ICR mice, 0.33 mg/mouse at hour 1, day 1 and day 2 after i.p. sarcoma 180 inoculation
Excerpt: ICR mice (5 animals per group) were intraperitoneally inoculated with 1×10^5 sarcoma 180 cells per mouse. […] The life span prolonging ratio as compared with the control (no drug treatment) group was 206. […] The life span prolonging ratio was 257. […] The value of the number of surviving animals represents the number of animals which survived on the 47th day.

[3] = test system: Meth A sacoma cells; test: Antitumor activity, Meth A sarcoma (Test Example 4); assay type: in vivo, Balb/C mice; conditions: 0.5 mg/mouse once daily for 5 days at site of inoculation; tumors weighed day 15
Protocol: Balb/C mice (5 animals per group) were each subcutaneously inoculated with 1×10^5 Meth A sacoma cells. Separately, a solution of the compound of Example 7 in physiological saline was administered to the mice at the site of inoculation in a dose of 0.5 mg/mouse once daily for 5 consecutive days starting from day 1 after tumor cell inoculation. On day 15, the tumor tissues were excised and weighed. The inhibition ratio as compared with the control group was 83%.

[4] = test system: P388 leukemia cells; test: Antitumor activity, P388 leukemia (Test Example 5); assay type: in vivo; conditions: CDF1 mice, 1 mg/mouse i.p. once per day for 14 days
Protocol: CDF1 mice (5 animals per group) were each intraperitoneally inoculated with 1×10^5 P388 leukemia cells. Separately, a solution of the compound of Example 7 in physiological saline was intraperitoneally administered to the mice in a dose of 1 mg/mouse once per day for 14 consecutive days starting from day 1 after tumor implantation. The life span prolonging ratio as compared with the control group was 140.

[5] = test system: MM46 cells; test: Antitumor activity, MM46 (Test Example 6); assay type: in vivo, C3H/He mice; conditions: 5 animals per group; 0.25 mg/mouse i.p. 4 days before and 4 days after inoculation; controls all died within 21 days
Protocol: The compound of Example 7 was intraperitoneally administered to C3H/He mice (5 animals per group) in a dose of 0.25 mg/mouse for 4 consecutive days.
On the 5th day, 1×10^4 MM46 cells were intraperitoneally inoculated into each mouse, and the compound of Example 7 was again administered intraperitoneally to the mice in a dose of 0.25 mg/mouse for 4 days starting from day 1 after inoculation.

[6] = test system: washed PRP (platelets); test: Action on platelets: platelet aggregation caused by test drug (Test Example 9); assay type: cell-based; conditions: 3×10^-5 M, rabbit washed PRP, 37° C.
Protocol: A blood sample was taken from a male rabbit using a syringe containing 3.15% citric acid (1 to 9 volumes of blood) as anticoagulant, and centrifuged at 1000 rpm and room temperature for 10 minutes to give platelet rich plasma (PRP). The PRP was further centrifuged at 1400 rpm for 15 minutes. The platelet pellet thus obtained was suspended in Ca^++ -free Tyrode (containing 0.25% of gelatin). A 250 μl portion of the thus-prepared washed PRP was stirred at 37° C. for 2 minutes, then 25 μl of 0.2-0.5 mM Ca^++ solution was added and the mixture was further stirred for 30 seconds. Thereafter, the test drug was added in an amount sufficient to make a concentration of 3×10^-5M. Platelet aggregation was measured using an aggregation meter (Rigaku Denki).

[7] = Toxicity testing, LD50 (Test Example 11); conditions: mouse, in vivo, ip; ICR mice, intraperitoneal, in physiological saline
Protocol: LD50 values were determined in ICR mice by intraperitoneally administering each test compound in the form of a solution in physiological saline.

[8] = test system: blood pressure; conditions: rat, in vivo, iv
Protocol: Seven-week-old male Spraugue-Dawley rats (200-290 g) were anesthesized by intraperitoneal administration of 60 mg/kg of pentobarbital sodium and the left carotid artery (for blood pressure measurement) and left femoral vein (for intravenous drug administration) were cannulated.

[9] = test system: PAF; test: Anti-PAF activity, inhibition of PAF-induced platelet aggregation (Test Example 14); assay type: cell-based; conditions: Oryctolagus cuniculus, 3×10^-5 M, rabbit washed PRP, read-out: percentage inhibition of maximum aggregation due to PAF
Protocol: A blood sample was taken directly from a male rabbit using a syringe containing 3.15% citric acid (1 to 9 volumes of blood) as anticoagulant, and centrifuged at 1000 rpm and room temperature for 10 minutes to give platelet rich plasma (PRP). The PRP was further centrifuged at 1400 rpm for 15 minutes. The platelet pellet thus obtained was suspended in Ca^++ -free Tyrode (containing 0.25% of gelatin). A 250-μl portion of the thus-prepared washed PRP was stirred at 37° C. for 2 minutes, then 25 μl of 0.2-0.5 mM Ca^++ solution was added and the mixture was further stirred for 30 seconds. Thereafter, the compound of Example 8 was added to a concentration of 3×10^-5 M. Platelet aggregation was measured with an aggregation meter (Rigaku Denki). The activity of the compound of Example 8 as determined in terms of percentage inhibition based on the maximum light transmittance (maximum aggregation) due to PAF in the control PRP was 94%.

[10] = test system: Tetrahymena pyriformis W; test: Microprotozoal growth inhibiting activity, liquid dilution method (Test Example 13); assay type: cell-based; conditions: 28° C., 44-48 hours, pH 7.0
Protocol: The compounds given in Table 4 were tested for microprotozoal growth inhibiting activity (expressed in terms of MIC) in Tetrahymena pyriformis W by the liquid dilution method by cultivating said test microorganism in a test medium [20 g of Tryptose peptone (Difco), 1 g of yeast extract, 2 g of glucose, 1000 ml of distilled water, 10 ml of 1M phosphate buffer, pH 7.0] at 28° C. for 44-48 hours.

[11] = test system: Pyricularia oryzae; test: microbe, parasite or virus in culture; assay type: cell-based; conditions: read-out: MIC, Pyricularia oryzae (rice blast)
[12] = test system: Botrytis cinerea; test: Antifungal activity, serial dilution method; assay type: cell-based; conditions: 1% glucose bouillon agar, read-out: MIC, Botrytis cinerea (gray mold)
[13] = test system: Sclerotinia sclerotiorum; test: Antifungal activity, serial dilution method; assay type: cell-based; conditions: 1% glucose bouillon agar, read-out: MIC, Sclerotinia sclerotiorum (kidney bean stem rot)
[14] = Adverse effects (general statement)
[15] = test system: platelets; conditions: Hanahan et al., Biochem. Biophys. Res. Commun., 99, 183 (1981); cited from earlier work
[16] = test system: Diaporthe citri; test: Antifungal activity, serial dilution method; assay type: cell-based; conditions: 1% glucose bouillon agar, read-out: MIC, Diaporthe citri (citrus melanose)
[17] = test system: Elsinoe fawcetti; test: Antifungal activity, serial dilution method; assay type: cell-based; conditions: 1% glucose bouillon agar; read-out: MIC, Elsinoe fawcetti (citrus scab)
[18] = test system: Cercospora beticola; test: Antifungal activity, serial dilution method; assay type: cell-based; conditions: read-out: MIC, Cercospora beticola (sugar beat leaf spot)

| Compound | Number of surviving animals/Number of animals tested [1] | life span prolonging ratio (T/C) [1] | Number of surviving animals/Number of animals tested [2] | life span prolonging ratio (T/C) [2] | LD50 [7] [mg/kg] | Hypotensive action [duration] [8] [s] | Hypotensive action ΔP [8] [mmHg] | MIC [10] [µg/mL] | MIC [11] [µg/mL] | MIC [12] [µg/mL] | MIC [13] [µg/mL] | other results |
| --- | --- | --- | --- | --- | --- | --- | --- | --- | --- | --- | --- | --- |
| CCCCCCCCCCCCCCCC(=O)COCC(COP(=O)([O-])OCC[N+](C)(C)C)OC (centres unmarked) [Example 1, 3-(2-Oxoheptadecyloxy)-2-methoxypropyl 2-trimethylammonioethyl phosphate] | 0/5 | 290 | 0/5 | 340 | – | – | – | – | – | – | – | – |
| CCCCCCCCCCCCCCC(=O)COCC(COP(=O)([O-])OCC[N+](C)(C)C)OC (centres unmarked) [Example 4, 3-(2-Oxohexadecyloxy)-2-methoxypropyl 2-trimethylammonioethyl phosphate] | 0/5 | 224 | 0/5 | 230 | – | – | – | – | – | – | – | – |
| CCCCCCCCCCCCCCCCCCC(=O)COCC(COP(=O)([O-])OCC[N+](C)(C)C)OC (centres unmarked) [Example 6, 3-(2-Oxoeicosyloxy)-2-methoxypropyl 2-trimethylammonioethyl phosphate] | 1/5 | 236 | 0/5 | 338 | – | – | – | – | – | – | – | – |
| CCCCCCCCCCCCCCCCC(=O)COCC(COP(=O)([O-])OCC[N+](C)(C)C)OC (centres unmarked) [Example 7, 3-(2-Oxooctadecyloxy)-2-methoxypropyl 2-trimethylammonioethyl phosphate] | – | 180 | – | 206 | > 150 | < 30 | -5 | – | – | – | – | inhibition ratio (tumor weight) as compared with control group [3]: 83%; life span prolonging ratio as compared with the control group [4]: 140; animals survived on day 46 [5]: 4 animals; platelet aggregation (in words) [6]: did not cause aggregation at all; platelet aggregation (in words) ([6]; listed as drawing 39): No aggregation; blood pressure decrease (in words) [8]: no observable blood pressure decrease |
| CCCCCCCCCCCCCCCCC(=O)COCC(COP(=O)([O-])OCC[n+]1ccsc1)OC (centres unmarked) [Example 8, 3-(2-Oxooctadecyloxy)-2-methoxypropyl 2-thiazolioethyl phosphate] | – | – | – | 257 | > 150 | < 30 | -3 | – | – | – | – | inhibition at 30 µM [9]: 94%; blood pressure decrease (in words) [8]: no observable blood pressure decrease |
| CCCCCCCCCCCCCCCCCCOCC(COP(=O)([O-])OCC[N+](C)(C)C)OC (centres unmarked) [compound (XIII), reference compound] | – | 170 | – | – | 25 to 50 | 270 | -43 to -75 | 1 (≈ 1.91 µM) | 6.25 (≈ 11.9 µM) | 25 (≈ 47.7 µM) | > 100 | adverse effects (in words) [14]: hypotensive activity and local irritation (necrosis) is also noted; platelet aggregating activity (in words) [15]: platelet aggregating activity |
| CCCCCCCCCCCCCCCCC(=O)COCC(COP(=O)([O-])OCC[N+](C)(C)C)OC (centres unmarked) [drawing 44] | – | – | – | – | – | – | – | 0.4 (≈ 0.744 µM) | – | – | – | – |
| CCCCCCCCCCCCCCCCC(=O)COCC(COP(=O)([O-])OCC[n+]1ccsc1)OC (centres unmarked) [drawing 45] | – | – | – | – | – | – | – | 1 to 2 (≈ 1.77 to 3.55 µM) | – | – | – | – |
| CCCCCCCCCCCCCCCCC(=O)COCC(COP(=O)([O-])OCC[N+](C)(C)C)OC (centres unmarked) [drawing 49] | – | – | – | – | – | – | – | – | 3.12 (≈ 5.8 µM) | 6.25 (≈ 11.6 µM) | 25 (≈ 46.5 µM) | MIC [16]: 6.25 µg/mL (≈ 11.6 µM); MIC [17]: 6.25 µg/mL (≈ 11.6 µM); MIC [18]: 3.12 µg/mL (≈ 5.8 µM) |
| CCCCCCCCCCCCCCCCC(=O)COCC(COP(=O)([O-])OCC[n+]1ccsc1)OC (centres unmarked) [drawing 51] | – | – | – | – | – | – | – | – | 3.12 (≈ 5.53 µM) | 100 (≈ 177 µM) | 25 (≈ 44.3 µM) | MIC [16]: 12.5 µg/mL (≈ 22.2 µM); MIC [17]: 12.5 µg/mL (≈ 22.2 µM); MIC ([18]; 1% glucose bouillon agar): 12.5 µg/mL (≈ 22.2 µM) |

From patent US4649203A, “Ketoalkylphospholipids” (Takeda Chemical Industries, Ltd., priority 1983, dated 1987)
